The values below come from patent US20050004093A1, “Beta-lactamase inhibitor prodrug” (Pfizer Inc, priority 2003, published 2005).

Data set [1] has as its system Streptococcus pneumoniae (02J1095). The experiment in a line: Murine pneumonia model. In kind it is in vivo. As to conditions: single agent, oral, b.i.d. for 2 days, mice, survival day 10 post-challenge.
Data set [2] relates to Staphylococcus aureus (01A0400). The experiment in a line: Murine systemic infection model. Type of data set: in vivo. As to conditions: single agent, oral, b.i.d. for 1 day, mice, survival day 4 post-challenge.
Data set [3] has as its system clinical isolates of S. pneumoniae. The experiment in a line: Susceptibility assay (NCCLS broth microdilution MIC), non-β-lactamase producing species. As to conditions: Streptococcus pneumoniae.
Data set [4] deals with Streptococcus pneumoniae (02J1046). The experiment in a line: Gerbil otitis media model. As to conditions: single agent, oral, t.i.d. for 2 days, bacterial clearance day 4 post-challenge. Type of data set: in vivo.
The subject of data set [5] is Moraxella catarrhalis (87A1115). Nature of the data set: Murine systemic infection model. In kind it is in vivo. The settings on record: single agent, oral, b.i.d. for 1 day, mice, survival day 4 post-challenge.
In data set [6] the test system is Haemophilus influenzae (54A1218). Nature of the data set: Gerbil otitis media model. Type of data set: in vivo. The settings on record: single agent, oral, t.i.d. for 2 days, bacterial clearance day 4 post-challenge.
Data set [7] has as its system Streptococcus pneumoniae (02J1095). The experiment in a line: Murine systemic infection model. Type of data set: in vivo. The settings on record: single agent, oral, b.i.d. for 1 day, mice, survival day 4 post-challenge.
Data set [8] concerns the target T1, BRO-2 β-lactamase, M. catarrhalis 87A1178 ATCC43617 (Moraxella catarrhalis, UniProt Q59514).
T1 sequence (Q59514 1-313 D293G): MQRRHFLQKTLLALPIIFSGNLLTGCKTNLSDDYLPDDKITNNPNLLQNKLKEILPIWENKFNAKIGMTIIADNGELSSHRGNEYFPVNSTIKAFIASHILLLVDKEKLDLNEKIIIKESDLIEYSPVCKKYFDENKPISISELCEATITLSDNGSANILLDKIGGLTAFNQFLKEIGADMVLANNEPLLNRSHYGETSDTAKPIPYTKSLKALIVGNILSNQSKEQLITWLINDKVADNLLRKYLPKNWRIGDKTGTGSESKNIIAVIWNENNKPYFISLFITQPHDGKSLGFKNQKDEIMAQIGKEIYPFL
Nature of the data set: IC50 against β-lactamase in cell extract (colorimetric, chromogenic cephalosporin). In kind it is biochemical. As to conditions: BRO-2, M. catarrhalis 87A1178 ATCC43617 cell extract.

Data set [9] is described as follows: in vitro. As for the experimental part: (§1) The incubation consisted of 990 μl of plasma preincubated for 5 minutes at 37° C. in a 96-well heat block. The incubation was initiated with the addition of 10 gl of a 10 mM stock of compound in 100% methanol. Serial aliquots (100 μl) were removed and transferred to 200 μl of 75/25 acetonitrile/3% perchloric acid at 0, 1, 2, 5, 10, 20, 30, and 60 minutes. The samples were centrifuged, the supernatants transferred to injection vials, and 20 μl was injected onto the HPLC in-line with a LC/MS single quadropole mass spectrometer. The LC/MS system was run in the negative ion mode.

The target in data set [10] is T2, BRO-1 β-lactamase, M. catarrhalis 87A1115 (Moraxella catarrhalis, UniProt Q59514).
T2 sequence (Q59514 26-313): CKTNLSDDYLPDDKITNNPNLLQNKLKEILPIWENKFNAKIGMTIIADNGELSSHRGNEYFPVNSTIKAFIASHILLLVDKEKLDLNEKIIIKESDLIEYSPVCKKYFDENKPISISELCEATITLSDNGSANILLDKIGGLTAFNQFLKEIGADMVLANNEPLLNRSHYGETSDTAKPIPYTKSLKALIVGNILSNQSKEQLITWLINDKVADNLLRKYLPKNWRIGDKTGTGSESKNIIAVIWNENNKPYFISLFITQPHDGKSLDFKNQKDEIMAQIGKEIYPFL
The experiment in a line: biochemical.

Data set [11] can be described thus: in vitro. Here is the method:
as §1
This is another data set of the same source.

Data set [12] can be described thus: in vitro. Here is the method: as §1
The source holds these as a separate data set.

Data set [13] can be described thus: in vitro. Here is the method: as §1
The source holds these as a separate data set.

The target of data set [14] is T3, Sme-I β-lactamase, Serratia S6 (Serratia marcescens, UniProt P52682).
T3 sequence (P52682 28-294): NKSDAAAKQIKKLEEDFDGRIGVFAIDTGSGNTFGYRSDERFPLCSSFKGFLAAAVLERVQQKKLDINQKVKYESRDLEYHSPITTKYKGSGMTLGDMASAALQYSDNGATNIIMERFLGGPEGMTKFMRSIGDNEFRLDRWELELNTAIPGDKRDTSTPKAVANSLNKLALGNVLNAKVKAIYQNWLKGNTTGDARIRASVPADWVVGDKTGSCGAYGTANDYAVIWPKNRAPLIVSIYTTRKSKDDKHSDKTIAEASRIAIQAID
Nature of the data set: biochemical.
From the text: Biochemical activity against β-lactamases from other pathogens, including those associated with skin infections:

The nature of data set [15]: in vitro. Here is the method: as §1
This is another data set of the same source.

The target of data set [16] is T4, ROB-1 β-lactamase, H. influenzae ATCC43334 (Haemophilus influenzae, UniProt P67918).
T4 sequence (P67918 34-305): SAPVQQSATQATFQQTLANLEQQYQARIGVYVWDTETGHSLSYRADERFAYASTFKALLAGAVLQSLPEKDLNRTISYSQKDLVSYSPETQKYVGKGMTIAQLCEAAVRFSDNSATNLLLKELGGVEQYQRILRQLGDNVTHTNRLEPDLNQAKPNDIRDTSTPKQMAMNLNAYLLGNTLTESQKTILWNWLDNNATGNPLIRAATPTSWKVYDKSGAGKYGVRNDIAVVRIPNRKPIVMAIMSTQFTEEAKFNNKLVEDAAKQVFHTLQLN
The experiment in a line: biochemical.

The subject of data set [17] is esterases. The experiment in a line: Hydrolysis in the presence of esterases. Type of data set: in vitro ADME. From the text: (§2) Based upon this correlation, the rat was used to predict human absorption. […] Thus, oral bioavailability assessments in rats should correlate well with the fraction absorbed in humans.
For data set [18] the following is noted: administered orally, rodents, preclinical studies; cited from earlier work.
A short description of data set [19]: Hepatic extraction, human hepatocytes. Type of data set: in vitro ADME.
From the text: as §2

Data set [20] is described as follows: Hepatic extraction, rat hepatocytes. In kind it is in vitro ADME.
From the text: as §2

Converted amounts (≈) assume the structure as drawn. Read-outs that look alike come from different tables or passages of the source.

For `CC1(C)S[C@@H]2[C@H](NC(=O)[C@H](N)c3ccc(O)cc3)C(=O)N2[C@H]1C(=O)O` [Amoxicillin, amoxicillin], the ED50 in data set [1] was less than 100 mg/kg; in data set [2], more than 200 mg/kg; in data set [4], more than 50 mg/kg; in data set [5], more than 200 mg/kg; in [6] it was more than 50 mg/kg; in data set [7] it was less than 100 mg/kg. Besides, the MIC in data set [3] (read-out: Amoxicillin MICs, 12 penicillin-susceptible S. pneumoniae isolates) lay in the range of 0.0156 to 0.06 µg/mL (≈ 0.0427 to 0.164 µM); in [3] (read-out: Amoxicillin MICs, 21 penicillin-intermediate S. pneumoniae) it was 0.03 to 1 µg/mL (≈ 0.0821 to 2.74 µM). Also, in data set [3] (read-out: amoxicillin MIC50), the MIC50 was determined as 2 µg/mL (≈ 5.47 µM). For the same compound, in data set [3] (read-out: amoxicillin MIC90), the MIC90 is 4 µg/mL (≈ 10.9 µM).
Consider `O=C(O)[C@H]1/C(=C/CO)O[C@@H]2CC(=O)N21` [Clavulanate, lithium clavulanate], for which the IC50 came to 110 nM in data set [8], 140 nM in data set [10], 19600 nM in [14] and 40 nM in data set [16]. The half-life at 100 μM in data set [9] (monkey, plasma) was 3.6 h; in [11] (mouse, plasma), more than 4 h; in data set [12] (rat, plasma), 3.3 h; in data set [13] (dog, plasma), 2.8 h; in [15] (human, plasma) it was 2.6 h.
As for `CC1(C)[C@H](C(=O)[O-])N2C(=O)[C@@H](CO)[C@H]2S1(=O)=O.[Na+]` [Na-HMPAS, 4-Thia-1-azabicyclo [3,2,0]heptane-2-carboxylic acid, 6-(hydroxymethyl)-3,3-dimethyl-7-oxo-,4,4-dioxide, monosodium salt, (2S,5R,6R)], the IC50 in data set [8] was determined as 320 nM; in [10] it was 143 nM; in data set [14] it was 680 nM; in [16] it was 10 nM. Besides, the half-life at 100 μM is more than 4 h in data set [9]; 3.9 h in data set [11]; 3.4 h in data set [12]; more than 4 h in [13]; more than 4 h in [15].
The compound `CC1(C)[C@H](C(=O)OCOC(=O)OC2CCOCC2)N2C(=O)[C@@H](CO)[C@H]2S1(=O)=O` [Prodrug 1, 4-Thia-1-azabicyclo[3.2.0]heptane-2-carboxylic acid, 6-(hydroxymethyl)-3,3-dimethyl-7-oxo-,[[[(tetrahydro-2H-pyran-4-yl)oxy]carbonyl]oxy]methyl ester, 4,4-dioxide (2S,5R,6R)] registered a melting point of 136 °C. In data set [1], this compound showed an ED50 of more than 25 mg/kg. Besides, the time to hydrolysis result in data set [17] is “within a few minutes”. This compound also gave a half-life at 100 μM in data set [11] (mouse, plasma) of less than 0.0333 h. The half-life at 100 μM in [12] (rat, plasma) was less than 0.0333 h. In data set [2], this compound returned an ED50 of more than 25 mg/kg. In data set [13] (dog, plasma), this compound yielded a half-life at 100 μM of 0.167 h. Besides, in data set [15] (human, plasma), the half-life at 100 μM is 0.112 h. Moreover, in [5], the ED50 was more than 25 mg/kg. Besides, the ED50 in data set [7] was more than 25 mg/kg.
For the compound `CC1(C)C(C(=O)O)N2C(=O)C(CO)C2S1(=O)=O` (stereo not drawn) [Prodrug 6-β-HMPAS, 6-β-hydroxymethylpenicillanic acid sulfone], the oral absorption entry in data set [18] was “very poorly absorbed”. The hepatic extraction entry in [19] and in [20] was “minimal” throughout.
